We go through seven compounds from US20030186950A1, “Use of n-heterocyclic substituted salicylates for inhibition of cellular uptake of cystine” (priority 2000, published 2003).

For orientation: IC50 means the point on the concentration scale where inhibition reaches its midpoint.

Data set [1] has as its system Nb2-SFJCD1 rat lymphoma cells. Briefly: Culture growth inhibition assay in Nb2-SFJCD1 lymphoma cultures. Particulars: for Growth-inhibitory activity: 0.1-0.3 mM (FIG. 2); for IC50: 45 h, Fischer's medium with 10.0% horse gelding serum, read-out: IC50 (mM) Average ± S.D., growth inhibition. Format: cell-based. The method, then: (§1) Nb2 lymphoma is of a pre-T cell origin. The parental line (Nb2 U17) is non-metastatic as subcutaneous implants whereas subline Nb2-SFJCD1 is highly metastatic. Nb2-SFJCD1 cultures (doubling time=12-13 hr) were maintained in Fischer's medium (Sigma-Aldrich), supplemented with 10.0% horse gelding serum (lactogen-deficient; one batch, ICN Biomedicals, Inc., Auroro, Ohio), penicillin (50 U/ml) and streptomycin (50 μg/ml). In this medium the cells grow as clumps which can be readily dispersed. Nb2 lymphoma cell lines are used by a number of laboratories; the Nb2-11 subline, is available from the European Collection of Animal Cell Cultures (ECACC) in Salisbury, U.K. The Nb2-U17 and Nb2-SJFCD1 cell lines are available from Dr. Peter W. Gout, B.C. Cancer Research Centre, Vancouver, B.C., Canada.
Nb2-SFJCD1 cells from log phase cultures were centrifuged (3.5 min at 350×g) and gently resuspended in fresh Fisher's medium containing 10% horse gelding serum. Aliquots (1.80 ml) were distributed in 12-well tissue culture plates (Linbro, Flow Laboratories, Mississauga, ON, Canada) and preincubated for 3-5 hours at 37° C. in a water-saturated 5% CO2/air atmosphere. Solutions of the drugs (200 μl portions) were then added to the cultures for a 45 hour incubation (Cin=1.0×10^5 cells/ml). Cell populations were determined using an electronic counter (Coulter Electronics, Hialeah, Fla.).

For data set [2] the following is noted: as reported in the literature for patients/controls undergoing treatment; cited from earlier work.
Data set [3] relates to MCF-7 human breast carcinoma cell line. As to the kind of experiment: Cell proliferation of MCF-7 breast carcinoma cells. It is filed as cell-based. An excerpt: (§2) The effect of sulfasalazine on cell proliferation was subsequently assessed.
Data set [4] has as its system Nb2-U17 tumor transplant. As to the kind of experiment: Tumor growth inhibition in Nb rats with subcutaneous Nb2-U17 lymphoma transplants. The conditions noted are these: b.i.d.; for Average tumor size after 7 days: controls 12.6 gr. It is filed as in vivo, rat. As for the experimental part:
A colony of Nb rats is maintained in the British Columbia Cancer Research Centre Vancouver, B.C., Canada. Approximately equal portions of minced Nb2-U17 tumor tissue, developed subcutaneously in a rat following injection of cultured Nb2-U17 cells, were injected by trocar subcutaneously in the nape of the neck of groups of male Nb rats (one injection per rat), that had been lightly anesthetized with isoflurane (Abbott Laboratories Ltd., Montreal, Canada). […] 2% CMC or saline were used for controls. Drug preparation and administration were carried out under subdued light conditions. Food and water were provided ad libitum. Tumor size, body weight and general health of the rats were monitored twice a day. Tumor size was measured using calipers and expressed in grams using the formula: π/6×length×width×height in cm. […] On necropsy the animals were examined for evidence of metastatic spread with particular attention to tissues such as kidneys, liver and spleen, the target tissues of metastatic Nb2 lymphoma cells. Tissue sections were taken for histologic analysis. Non-tumor-bearing animals were used to establish maximally tolerated dosages.
Groups of male rats (350-400 gr) were used, each carrying a single, well-developed, rapidly growing, non-metastatic, subcutaneous Nb2-U17 tumor transplant in the nape of the neck. Non-metastatic Nb2-U17 tumors were employed to avoid dissemination of cells from the tumor which would interfere with measurements of drug-induced changes in tumor mass. […] The animals were treated for a 7-day period, with drug administration taking place at approximately 12 hour intervals in an attempt to maintain elevated levels of the drug in the circulation.

In data set [5] the test system is MDA-MB-231 human breast carcinoma cell line. Briefly: Cell proliferation of MDA-MB-231 breast carcinoma cells. It is filed as cell-based. The conditions noted are these: 2-ME 60 μM.
Excerpt: as §2

The conditions of data set [6]: rat, in vivo, ip. The text has this:
2% CMC or saline were used for controls. […] Food and water were provided ad libitum. […] Tissue sections were taken for histologic analysis.
Reduced tumor growth in the animals was therefore not the result of drug-induced dissemination of tumor cells from the transplant site, but reflected genuine, tumor growth inhibition. […] During therapy the animals remained active and their eyes stayed bright; there was no evidence of diarrhea, or changes in the appearance of their fur.

For data set [7], the system named is DoHH2 cells (human B-cell non-Hodgkin's lymphoma). Briefly: Culture growth inhibition assay in DoHH2 cultures. Format: cell-based. Particulars: for Growth-inhibitory activity: medium with 5% FBS + 5% horse serum (FIG. 4). The method, then:
as §1, with “Canada. DoHH2 cell suspension cultures (doubling time ca. 20 hours) were maintained in RPMI-1640 medium (Stem Cell Technology, Vancouver, B.C., Canada) containig fetal bovine serum (5%), horse serum (5%) and antibiotics.” for “Canada.”
Assays using DoHH2 cells were similarly performed, using their maintenance medium; Cin=ca. 1.5×10^5 cells/ml (see: Kluin-Nelemans, H. C. et al. (1991) Leukemia 5:221.)

Entries after “also recorded” stand apart in the source; their conditions may differ.

With `Nc1ccc(O)c(C(=O)O)c1` [5-aminosalicylic acid], in data set [1] (listed as 5-ASA), the Growth-inhibitory activity result is recorded as “devoid of growth-inhibitory activity”.

Take `CC(=O)Oc1ccccc1C(=O)O` [Acetylsalicylic acid]: the “Therapeutic drug levels in plasma” value in data set [2] is 1 to 3 mM. Also, in data set [1] (Rattus norvegicus, 3 mM (FIG. 1), read-out: Inhibition of culture growth at therapeutic concentration), the inhibition at 3000 µM was approximately 50%. The IC50 in data set [1] (Rattus norvegicus) worked out at 3.09 ± 0.28 mM.

For `COc1ccc2c(c1)c(CC(=O)O)c(C)n2C(=O)c1ccc(Cl)cc1` [Indomethacin], in data set [2], the “Therapeutic drug levels in plasma” value was 0.005 to 0.02 mM. Besides, the inhibition at 20 µM in data set [1] (Rattus norvegicus, 0.02 mM (FIG. 1), read-out: Inhibition of culture growth at therapeutic concentration) was in the range of 5 to 10%. Further, the IC50 in data set [1] (Rattus norvegicus) was 0.15 ± 0.01 mM.

For the compound `N[C@@H](CCC(=O)O)C(=O)[O-].[Na+]` [Monosodium glutamate], the Inhibition of proliferation result in data set [3] (10 mM) was “inhibited proliferation in MCF-7 cells to an extent similar to that observed for sulfasalazine”. Also, the “Effect of 2-ME addition on inhibition of proliferation” value in data set [3] (10 mM, 2-ME added) is on record as “completely negated this effect”.

Turning to `O=C([O-])c1ccccc1O.[Na+]` [Salicylate, sodium, sodium salicylate], in data set [4] (i.p. 150 mg/kg body wt, 7 days, 150 mg/kg), the “Inhibition of tumor growth” value was “did not inhibit tumor growth; also recorded: had no effect”.

Take `O=C(O)c1cc(/N=N/c2ccc(S(=O)(=O)Nc3ccccn3)cc2)ccc1O` [Sulfasalazine]: the “Antagonism of inhibitory action by 2-ME” value in data set [5] is listed as “completely antagonized”. Also, the “Effect on culture growth” value in data set [1] (0.15 mM, 45 hour experiment) is “only partially arrested growth”. The Cell lysis entry in data set [1] (0.2 mM, period 24-45 hours) is “induced severe cell lysis”; in data set [7] (1.5% FBS, 0.05 mM, at hr 45 (FIG. 4)), “extensive cell lysis”. The Growth-inhibitory activity result in data set [1] is given as “highly potent”; in data set [7], “sensitivity to the drug which was similar to that of rat Nb2 lymphoma cells”; in data set [7] (listed as sulfasalazine) it was “markedly inhibited the growth”. In data set [1] (cystine at ca. 3-fold elevated levels (FIG. 5)), the “Change of growth-inhibitory effect by elevated cystine” value was “substantially reduced”. For the same compound, the Maximally tolerated dose in data set [6] (Nb, 7 days) is reported as 250 mg/kg body wt, b.i.d. Further, in data set [6], the Side effects result was “no major side effects”. In addition, the “Average tumor size after 7 days” value in data set [4] (i.p. 200 mg/kg body wt, start 0.93 gr) is reported as 3.43 gr; in data set [4] (i.p. 250 mg/kg body wt, start 0.60 gr), 2.65 gr. Besides, the “Tumor growth suppression in three of the 13 cases” value in data set [4] (i.p. 200 or 250 mg/kg body wt, 7 days) is 90-100%. The Lymphoma growth-inhibitory effect entry in data set [4] (oral 500 mg/kg body wt, 7 days) was “only minor lymphoma growth-inhibitory effect”. The IC50 in data set [3] (Homo sapiens, MCF7, MCF-7, read-out: IC50, growth inhibition) amounted to 500 ± 100 µM.

Turning to `Nc1ccc(S(=O)(=O)Nc2ccccn2)cc1` [sulfapyridine], the Growth-inhibitory activity result in data set [1] is on record as “devoid of growth-inhibitory activity”.
